Data published in ChEMBL document CHEMBL2074380, “Pyronaridine, a novel modulator of P-glycoprotein-mediated multidrug resistance in tumor cells in vitro and in vivo” (Biochem Biophys Res Commun, 2004).

Experiments:
Format in all cases: functional, cell-based
[1] = biological target: T1, ATP-dependent translocase ABCB1 (Homo sapiens, UniProt P08183); assay: TP_TRANSPORTER: increase in Rhodamine 123 intracellular accumulation in K562/A02 cells
[2] = biological target: T1, ATP-dependent translocase ABCB1; assay: TP_TRANSPORTER: drug resistance (doxorubicin) in MCF-7/ADR cells; conditions: nci/adr-res
[3] = biological target: T1, ATP-dependent translocase ABCB1; assay: TP_TRANSPORTER: drug resistance (doxorubicin) in K562/A02 cells

Measured: Activity

T1 sequence (P08183 whole entry): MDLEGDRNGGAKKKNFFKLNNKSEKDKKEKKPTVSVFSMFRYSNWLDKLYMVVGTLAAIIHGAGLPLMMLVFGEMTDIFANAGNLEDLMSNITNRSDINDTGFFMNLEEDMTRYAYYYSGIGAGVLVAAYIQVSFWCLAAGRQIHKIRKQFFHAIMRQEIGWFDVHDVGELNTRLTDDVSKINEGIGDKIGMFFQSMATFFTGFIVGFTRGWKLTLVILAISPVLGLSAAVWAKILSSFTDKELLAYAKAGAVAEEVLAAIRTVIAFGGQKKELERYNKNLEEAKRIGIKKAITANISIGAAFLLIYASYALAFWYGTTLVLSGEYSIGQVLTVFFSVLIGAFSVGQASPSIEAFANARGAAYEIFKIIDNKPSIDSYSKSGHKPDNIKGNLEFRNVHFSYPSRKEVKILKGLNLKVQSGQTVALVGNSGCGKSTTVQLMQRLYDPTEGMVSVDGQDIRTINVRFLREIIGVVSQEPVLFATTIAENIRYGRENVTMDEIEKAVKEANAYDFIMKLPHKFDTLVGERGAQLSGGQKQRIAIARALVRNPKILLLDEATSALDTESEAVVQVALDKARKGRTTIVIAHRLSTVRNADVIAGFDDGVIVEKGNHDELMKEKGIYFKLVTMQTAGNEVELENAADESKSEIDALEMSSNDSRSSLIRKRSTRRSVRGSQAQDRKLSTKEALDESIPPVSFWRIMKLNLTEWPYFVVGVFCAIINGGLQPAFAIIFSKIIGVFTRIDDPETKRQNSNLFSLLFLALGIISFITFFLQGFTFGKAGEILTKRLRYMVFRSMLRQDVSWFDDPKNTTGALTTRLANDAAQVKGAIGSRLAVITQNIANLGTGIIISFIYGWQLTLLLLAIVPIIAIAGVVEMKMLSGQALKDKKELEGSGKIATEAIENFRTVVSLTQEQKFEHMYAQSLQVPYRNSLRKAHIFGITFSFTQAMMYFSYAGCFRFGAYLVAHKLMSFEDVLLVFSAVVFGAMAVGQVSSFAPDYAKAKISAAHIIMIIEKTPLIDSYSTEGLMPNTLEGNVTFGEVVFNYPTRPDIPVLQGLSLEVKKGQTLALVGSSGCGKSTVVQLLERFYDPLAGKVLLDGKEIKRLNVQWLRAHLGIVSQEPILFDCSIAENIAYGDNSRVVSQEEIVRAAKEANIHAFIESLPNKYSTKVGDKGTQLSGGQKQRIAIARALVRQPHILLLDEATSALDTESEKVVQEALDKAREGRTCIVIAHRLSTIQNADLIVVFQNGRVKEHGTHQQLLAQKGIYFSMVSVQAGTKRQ

COc1ccc2nc3cc(Cl)ccc3c(Nc3cc(CN4CCCC4)c(O)c(CN4CCCC4)c3)c2n1 [PYRONARIDINE]
inhibitor [+]: all assays above
